# Reference: patent US12714698B2, “Compositions and methods for treating or preventing dermal disorders” (Drexel University, priority 2015, dated 2026)
# “Also recorded” adds a separate entry of the source.
# Experiments:
# Assay type in all cases: cell-based
# [1] = system: human cardiac fibroblasts; experiment: Immunoblot of electron transport chain and mitochondrial clearance proteins
# Description: (§1) Cell culture experiments utilizing NRTIs were of the following design. Cultures of either human lung or cardiac fibroblasts were cultivated according to standard culture protocols for these cells (Cristofalo, et al., Journal of Tissue Culture Methods 1980, 6:117-121). Parallel sets of cultures were maintained in normal growth media or in normal growth media with the addition of 1 nM rapamycin. Cultures were maintained with 1 nM rapamycin (Enzo Biologicals) for two weeks before exposure to NRTIs. Cell cultures were exposed to NRTIs at indicated concentrations in individual experiments (generally 10-20 μg/ml) for 7 days, with a change of media and fresh NRTIs at day 4. Mitochondrial measurements, bioanalyzer measurements, immunoblotting for protein expression and phosphorylation status, and assays for senescence were performed at the end of this 7-day period.
# Cell protein extracts were prepared by extracting with radioimmunoprecipitation assay (RIPA) buffer containing a protease inhibitor cocktail (Sigma-Aldrich) and phosphatase inhibitors, NaF and sodium orthovanadate. Protein concentration was quantified using a bicinchoninic acid (BCA) assay (Pierce Biotechnology). Western blot analysis was performed using 15 to 30 μg of protein extracts that were run on SDS-PAGE and transferred onto nitrocellulose (Biorad) membranes. Blots were incubated with antibodies specific for: beta-actin (Sigma-Aldrich), TFAm, parkin, p16, phospho(S82)HSP27, HSP27 (Santa Cruz Biotechnologies), p53, 21, catalase, MDM2 (EMD Millipore), VDAC, phospho(S235/236)-ribosomal protein S6, ribosomal protein S6, phospho(S166)-MDM2, phospho(5473)-AKT, AKT, beta-tubulin (Cell Signaling), p62 (Enzo Biologicals), IL-6 (NeoBiolab), lamin B1, PINK1, and Mitoprofile Total OXPHOS Cocktail (complex I-NDUFB8 subunit, CII-SDHB subunit, CIIIUQCRC2 subunit, and CIV-mitochondrial COX1 subunit) (Abcam) according to manufacturers' instructions. […] For co-immunoprecipitation, cell protein extracts were prepared in HNTG buffer containing a protease inhibitor cocktail and quantified using BCA assay. […]
# [2] = system: human cardiac fibroblasts; experiment: Mitochondrial respiration, Seahorse XF24 Bioanalyzer
# Description: Cell culture experiments utilizing NRTIs were of the following design. Cultures of either human lung or cardiac fibroblasts were cultivated according to standard culture protocols for these cells (Cristofalo, et al., Journal of Tissue Culture Methods 1980, 6:117-121). Parallel sets of cultures were maintained in normal growth media or in normal growth media with the addition of 1 nM rapamycin. Cultures were maintained with 1 nM rapamycin (Enzo Biologicals) for two weeks before exposure to NRTIs. […] Mitochondrial measurements, bioanalyzer measurements, immunoblotting for protein expression and phosphorylation status, and assays for senescence were performed at the end of this 7-day period. Mitochondrial function was measured using the XF cell mito stress test kit on a Seahorse XF24 Bioanalyzer (Seahorse Bioscience). Cells were seeded at a density of 15,000 cells per well in an XF24 microplate. Following acquisition, results were normalized based upon 10^6 cells counted using a Guava EasyCyte Mini (Millipore), where applicable. […] Respiration rates and proton leak were assessed as outlined in published methods (Hill, et al., Biological chemistry 2012, 393:1485-1512). Mitochondrial respiration was calculated based upon oxygen consumption rate measurements in triplicates from cells seeded in at least quadruplicates. Basal respiration represents the initial oxygen consumption rate measurements and maximal respiration represents the oxygen consumption rate measurements following FCCP addition. ATP-linked respiration is represented as the oligomycin-sensitive oxygen change to basal oxygen consumption rate. Proton leak represents the oligmycin insensitive oxygen consumption rate. […] All data was normalized to cell number by counting cells in each well at the completion of the mitochondrial assessments.
# human lung fibroblasts = experiment: Mitochondrial respiration, Seahorse Bioanalyzer, lung fibroblasts; details: rapamycin-treated lung fibroblasts
# Description: Cell culture reagents were from Cellgro, unless indicated. […]
# Mitochondrial function was measured using the XF cell mito stress test kit on a Seahorse XF24 Bioanalyzer (Seahorse Bioscience). […] Following acquisition, results were normalized based upon 10^6 cells counted using a Guava EasyCyte Mini (Millipore), where applicable. […] Mitochondrial respiration was calculated based upon oxygen consumption rate measurements in triplicates from cells seeded in at least quadruplicates. […]
# human fibroblasts = experiment: Long-term culture of human fibroblasts with or without rapamycin (lifespan, organization, p21 and IL-6 expression)
# Description: FIG. 13 is a graph illustrating the finding that rapamycin treatment provides lifespan extension in human fibroblasts. Human fibroblast cells were growth in culture medium with or without rapamycin (1 nM). Cultures were split every 7 days and reseeded at identical cell number/cm^2 each week. The lifespan of normal human fibroblasts is counted by the number of times that the cells double.
# FIG. 14 illustrates the finding that rapamycin preserves cell organization during aging of human fibroblasts. […] The ability to organize is a critical element of normal fibroblast function and contributes to tissue integrity in normal tissue. The disorganization which occurs with age contributes to functional decline.
# FIG. 17 is a bar graph illustrating the finding that rapamycin prevents the expression of genes that cause senescence. The p21 gene makes a protein that is critical for senescence of human fibroblasts.
# FIG. 18 is a bar graph illustrating the finding that rapamycin prevents the expression of genes related to inflammation. The IL-6 gene makes a protein that activates the immune system to recruit immune cells into an area of tissue damage.
# as §1
# [3] = cells grown in the presence of rapamycin
structure (smiles),measurement,setting,value
CO[C@H]1C[C@@H]2CC[C@@H](C)[C@@](O)(O2)C(=O)C(=O)N2CCCC[C@H]2C(=O)O[C@H]([C@H](C)C[C@@H]2CC[C@@H](O)[C@H](OC)C2)CC(=O)[C@H](C)/C=C(\C)[C@@H](O)[C@@H](OC)C(=O)[C@H](C)C[C@H](C)/C=C/C=C/C=C/1C [rapamycin],"steady state levels of NDUFB8, SDHB, UQCRC2 and mt-CO1",[1]; cells treated with rapamycin vs control,lower
same,ETC protein levels on exposure to NRTIs,[1]; rapamycin-treated cells,not elevated
same,level of p62/SQSTM1,[1]; response to rapamycin,decreased
same,basal respiration,[2]; rapamycin-treated (1 nM) vs standard culture,significantly lower
same,basal respiration when exposed to NRTIs,[2]; rapamycin-treated cells (1 nM),did not exhibit an increase
same,maximal respiration when exposed to NRTIs,[2]; rapamycin-treated cells (1 nM),did not exhibit an increase
same,proton leak following exposure to NRTIs,[2]; rapamycin-treated cells (1 nM),did not exhibit an increase
same,ATP-linked respiration,[2]; rapamycin-treated cultures (1 nM),reduced
same,"basal and maximal respiration, proton leak following exposure to NRTIs",human lung fibroblasts,no increase
same,IL-6 expression as cells age,human fibroblasts; [3],do not produce IL-6
same,p21 expression as cells age,human fibroblasts; [3],do not produce p21
same,cell organization during aging,human fibroblasts; low doses of rapamycin,maintained an orderly growth pattern
same,replicative lifespan (number of times that the cells double),human fibroblasts; rapamycin 1 nM in culture medium,extend replicative lifespan; also recorded: well beyond the normal lifespan
